Row | melting point | Compound
1 | 197 to 198 °C | CC(=O)OCC1(COC(C)=O)CC1(Br)Cn1cc(C)c(=O)[nH]c1=O (configuration not stated)
2 | 136 to 140 °C | CCOC(=O)COc1ccc(-c2ccc(Cl)c(C(=O)NCC34CC5CC(CC(C5)C3)C4)c2)cc1
3 | 187 to 191 °C | O=C(CC1CC1)NC[C@H]1CN(c2ccc3c(c2)CCCc2cnoc2-3)C(=O)O1
4 | 189 to 190 °C | CN1C(c2ccc(C#N)cc2)=NC(C(F)(F)F)(C(F)(F)F)C1NC(=O)c1ccc(CF)cc1 (configuration not stated)
5 | 160 to 163 °C | O=C(Nc1ccc(C(CC2CCCC2)C(=O)Nc2ccccn2)cc1)c1cccnc1 (configuration not stated)
6 | 310 to 312 °C | O=c1[nH]c2cc(Cl)ccc2c(=O)c(-c2ccc([N+](=O)[O-])cc2)c1O
7 | 104 to 106 °C | COc1cccc(C2(c3cccc(OC)c3)CC2C=CC(=O)NC(C)CCCc2cccnc2)c1 (single isomer, unassigned)
8 | 154 °C | Cc1ccc2cccc(OCc3c(Cl)ccc(S(=O)(=O)N(C)Cc4ccccc4)c3Cl)c2n1
9 | 186 to 187 °C | CN1CCN(C(=O)c2ccc(-c3[nH]nc4c3C(=O)c3c(NC(=O)NN5CCOCC5)cccc3-4)s2)CC1
10 | 67 to 68 °C | COC(=O)CN1C(=O)[C@H](C(C)C)Oc2c(C(C)C)cccc21
11 | 151 to 153 °C | COc1ccc2c(c1)sc1nc(C(O)C3CC3)cn12 (configuration not stated)
12 | 191 to 193 °C | COc1cccc(OC)c1C(=O)Nc1nc[nH]n1
13 | 70 to 72 °C | CC(CC(=O)OCc1ccccc1)NC(=O)CCNC(=O)OC(C)(C)C (configuration not stated)
14 | 207 to 208 °C | CNC(=O)Cc1c(-c2ccc(C)cc2)nn2cccnc12
15 | 152 to 154 °C | CSc1ccc(-c2ccccn2)c2c1C(=O)CC(C)(C)C2
16 | 203 to 204 °C | C=CCc1cc2c(c(CC=C)c1O)CCC(=O)N2CCCNC(N)=O
17 | 121 to 124 °C | COc1cc(C=Cc2ccc(Cl)cc2)ccc1O
18 | 163 to 164 °C | COc1ccc2c(c1)C(C)(N)C(=O)N2c1ccc(F)cc1 (configuration not stated)
19 | 203 to 205 °C | CNC(=O)c1cc(Oc2ccc(NC(=O)Nc3ccc(Br)c(C(F)(F)F)c3)cc2)ccn1
20 | 172 to 173 °C | O=C(NC1CCCCC1O)c1ccccc1 (configuration not stated)
21 | 262 to 264 °C | COc1cc(OC)c2c(=O)c3oc4ccc(OC)cc4c3oc2c1
22 | 160 to 170 °C | CCCN1c2ccccc2C(=O)N(CC(=O)O)c2cc(Cc3c[nH]c4ccccc34)ccc21
23 | 280 to 281 °C | CCOC(=O)c1nnc2ccc(NC(C)=O)cc2c1O

Row | melting point | Compound
24 | 179 to 180 °C | O=C(O)c1ccc(CO)cc1O
25 | 93 to 95 °C | CCCCc1nc(C(F)(F)F)c(C(=O)OCC)n1Cc1cccc2c1ccn2-c1ccccc1-c1nn[nH]n1
26 | 59 to 61 °C | CCC(Oc1ccccc1)C(=O)NCCO[N+](=O)[O-] (configuration not stated)
27 | 64.7 to 65.8 °C | CCCCCN(CCC1CCCCC1)C(=O)NCc1ccncc1
28 | 119 to 121 °C | C[N+]([O-])=C(Cn1cncn1)c1ccc(Cl)cc1
29 | 190 to 191 °C | O=C(CCc1ccc(NC2=NCCN2)cc1)c1ccc(F)cc1
30 | 143 to 144 °C | COc1cc(NC(C)=O)c(Cl)c(C(F)(F)F)c1Cl
31 | 68 to 69 °C | O=Cc1c2ccccc2c(OCCOCc2ccccc2)c2ccccc12
32 | 59 to 61 °C | CC(C)(C)OC(=O)N1CCCC(c2ccc3c(c2)C2(CO3)C(=O)N(Cc3ccc(C(F)(F)F)o3)c3ccccc32)C1 (configuration not stated)
33 | 68 to 70 °C | N#CNc1cc(F)ccc1-c1ccccc1
34 | 194 to 196 °C | Cc1cc(COc2ccccc2)c2c(N)c(C(N)=O)sc2n1
35 | 142 to 145 °C | Cc1ccc(Cl)cc1S(N)(=O)=O
36 | 229 to 231 °C | CC12CCC(C(=O)Nc3ccccc3C(c3ccc(O)cc3)c3ccc(O)cc3)(OC1=O)C2(C)C (configuration not stated)
37 | 167 to 169 °C | O=C(CCl)Nc1cc2c(Nc3cc(Cl)c(Cl)cc3F)ncnc2cc1OCCOCCF
38 | 95.5 to 97 °C | CCCCC1N=CC(C=O)(Cc2ccc(C(=O)OC)c3ccccc23)N1 (configuration not stated)
39 | 97 to 98 °C | COC(=O)c1ccc([N+](=O)[O-])c(OCCO)c1
40 | 249 to 251 °C | COc1ccc(N2CCN(CCn3c(=O)[nH]c4sccc4c3=O)CC2)cc1
41 | 228 to 230 °C | CCN(CC)Cc1ccc2[nH]c(-c3ccccc3)cc(=O)c2c1
42 | 72 to 74 °C | O=C(O)C(=O)c1ccc(OCOc2ccccc2)cc1
43 | 240 °C | C[C@H](N[C@@H](CCc1ccccc1)C(=O)O)C(=O)N1C(=O)N(C)C[C@H]1C(=O)O
44 | 155 to 157 °C | CCC(C)n1cc(Cl)nc(N2CCc3cc(OC)cc(Br)c32)c1=O (configuration not stated)
45 | 177 to 179 °C | O=C1O[C@@H]2C[C@@]1(O)C=C(OCc1ccc3sccc3c1)[C@H]2O
46 | 226 to 227 °C | COc1cc(Cl)nnc1NS(=O)(=O)c1cccc(Cl)c1Cl

Row | melting point | Compound
47 | 154 to 155 °C | CC(C)(C)OC(=O)NC1CC2CCCC(C1)N2Cc1ccccc1 (configuration not stated)
48 | > 250 °C | Nc1ccc(C=C2c3ccccc3CCc3ccccc32)cc1
49 | 197 to 201 °C | NC(=O)c1cc(Cl)c(Cl)cc1C(=O)O
50 | 245 to 246 °C | CC1Cc2cc(S(N)(=O)=O)cc(C(=O)O)c2O1 (configuration not stated)
51 | 190 °C | CN(C(=O)CCCCO/N=C(\c1ccccc1)c1ccc2c(c1)CN1CC(=O)NC1=N2)C1CCCCC1
52 | 70 to 71 °C | CCCCCCCCCCCCCCCCSCC(CNS(=O)(=O)CCCI)NC(=O)NC (configuration not stated)
53 | 67.5 to 68.5 °C | COC(=O)CCCCCCCCCCCCCCCCCOS(=O)(=O)c1ccc(C)cc1
54 | 83 to 85 °C | CCOC(=O)c1ccc(OCCc2c(CCNS(=O)(=O)Cc3ccc(Cl)c(Cl)c3)n(C(c3ccccc3)c3ccccc3)c3ccc(Cl)cc23)cc1F
55 | 161 to 162 °C | COC(=O)c1ccc2occ(-c3cc(F)ccc3F)c2c1
56 | 76 to 81 °C | COC(=O)[C@H](Cc1ccc(NC(=S)NCCc2ccccc2)cc1)NC(=O)[C@@H]1CCCN1S(=O)(=O)c1ccc(C)cc1
57 | 135 to 137 °C | CC(C)(C)CC(C)(C)C(CCC(=O)O)CC(=O)O (configuration not stated)
58 | 202 to 204 °C | CC(=O)NC[C@H]1CN(c2cc(F)c(N3CCC(n4nnnc4-c4ccncc4)CC3)c(F)c2)C(=O)O1
59 | 257 to 260 °C | O=C(Nc1ccc(C(=O)N2Cc3cccn3Cc3ccccc32)cc1)c1ccccc1F
60 | 216 to 217 °C | Cc1cccc(N(c2ccccc2)c2ccc3c(c2)C(CCCO)(CCCO)c2cc(N(c4ccccc4)c4cccc(C)c4)ccc2-3)c1
61 | 130 °C | CCCc1nc(C)n2nc(SC)nc2c1Cc1ccc([N+](=O)[O-])cc1
62 | 187 °C | O=C(Cc1ccccc1)Nc1ccc2ccc(Cl)nc2n1
63 | 220 °C | CCc1cn2c(N)c(Cl)cc(C(=O)NCC3CCN(CCc4ccc(C(C)(C)C)cc4)CC3)c2n1
64 | 188 to 192 °C | CNC(=O)C(Cc1ccc(OC)cc1)NC(=O)C(CC(C)C)C(CC(=O)NCC(=O)O)SC(C)=O (configuration not stated)
65 | 129 °C | CCCCc1ccc(-c2ccc(CCc3ccc(Cl)cc3)cc2)cc1
66 | 187 to 188 °C | C=CCNC(=O)NS(=O)(=O)c1ccccc1OC(Cl)=CCl
67 | 255 to 258 °C | O=C(O)c1cc(Cl)cc2cc(-c3ccccc3)oc12
68 | 175 to 180 °C | CCC(C)C(S)C(=O)NC1(C(=O)NC(Cc2ccc(-c3ccco3)nc2)C(=O)O)CCCC1 (configuration not stated)
69 | 164 to 166 °C | CC/C=C/c1nc(Cl)c(C=O)n1Cc1ccc(-c2ccccc2C(=O)O)cc1

Row | melting point | Compound
70 | > 250 °C | CNCC1Cc2cc(-c3cccc(F)c3)cc(F)c2O1 (configuration not stated)
71 | 33 to 35 °C | CCCCCCCCCCCCCCCCOC(=O)OC(C)=CC(C)=O
72 | 127 °C | COc1ncccc1-c1ccc(OC2SCC(O)C(O)C2O)cn1 (configuration not stated)
73 | 100 to 105 °C | O=C(O)Cc1c(Cl)nc(-c2cc([N+](=O)[O-])c(Cl)c([N+](=O)[O-])c2)n1Cc1ccccc1
74 | 175 to 176 °C | Cn1nnnc1CC(O)(c1ccccc1)c1ccccc1
75 | 172 °C | N#CCCn1c(=O)n(C2CCN(CCNC(=O)c3ccc(F)cc3)CC2)c2ccccc21
76 | 135 to 137 °C | COc1ccc(NC(=O)c2ccc(-c3ccc(-c4noc(C)n4)cc3)cc2)cc1N1CCN(C)CC1
77 | 225 to 228 °C | COc1cc2c(Nc3ccc(Sc4ccccn4)c(Cl)c3)c(C#N)cnc2cc1F
78 | > 300 °C | Cc1nn(C)c2c1nc(O)c1c(C(=O)O)cnn12
79 | 96 to 98 °C | CC(C)(C)OC(=O)N1CC=C(c2ccc(N)cc2F)CC1
80 | > 250 °C | O=C(Nn1c(=O)c(=O)[nH]c2cc(C(F)(F)F)c([N+](=O)[O-])cc21)C(F)(F)F
81 | 115 to 117 °C | CC(C)(C)NC(=O)[C@@H]1C[C@H](N2CCOCC2)CN1C(=O)[C@@H](O)[C@H](Cc1ccccc1)NC(=O)[C@H](CC(N)=O)NC(=O)OCc1ccccc1
82 | 159 to 160 °C | NC(=O)N(O)C/C=C/c1cccc(C2=NOC(c3ccc(F)cc3)C2)c1 (configuration not stated)
83 | 254 to 255 °C | CNS(=O)(=O)c1cnc2c(OC)c(OC)c(OC)cc2c1O
84 | 180 to 183 °C | CC(=O)N1CCN(CCN2C=Cc3cc(S(N)(=O)=O)sc3S2(=O)=O)CC1
85 | 52 to 53 °C | COc1c(C)cccc1Oc1ccccc1
86 | 214 to 217 °C | CS(=O)(=O)Nc1ccc2c(c1)C(=O)C(C1CCN(CCc3ccc4nonc4c3)CC1)C2 (configuration not stated)
87 | 172 °C | NS(=O)(=O)c1ccc(-n2nc(C(F)(F)F)cc2-c2ccc(-c3ccco3)c(Cl)c2)cc1F
88 | 107 to 109 °C | COc1ccc(Cn2c(=O)c3ccc(Cl)cc3n(CCCCBr)c2=O)cc1
89 | 58 °C | C=C1CC(C=CC(O)CCCCC)C(O)(Cc2cccc(OCc3ccccc3)c2)C1 (configuration not stated)
90 | 183 to 184 °C | CC(O)(Cn1ccnc1)c1ccc2c(c1)Cc1ccccc1-2 (configuration not stated)
91 | 92 to 94 °C | C=CC1(CC(=O)O)CC(C)(C)CC(C)(C)C1
92 | 314 to 315 °C | NNc1cc(=O)[nH]c(N)n1

Row | Compound | melting point
93 | N#Cc1ncn2c1[C@@H]1CCCN1C(=O)c1c(Br)cccc1-2 | 253 to 254 °C
94 | COCC1C(=O)C(C)(C)C(=O)N1c1ccc(C#N)c(Cl)c1 (configuration not stated) | 98 to 99 °C
95 | CCOC(=O)c1cc2c(cn1)[nH]c1ccccc12 | 229 °C
96 | CCC12CCC3C4CCCC=C4CCC3C1CCC2=O (configuration not stated) | 101 to 102 °C
97 | Cc1nc(CN(C)C)n2c1CN=C(c1ccccc1Cl)c1cc(Cl)ccc1-2 | 185 to 186 °C

Reference: a melting point compilation (Tetko et al.; mined from patent text by program, amines drawn as free bases though some values may be those of a salt)
